# Read-outs that look alike come from different tables or passages of the source.
# Biological target: T1, SIRT1 (Homo sapiens, UniProt Q96EB6)
# T1 sequence (Q96EB6 1-747): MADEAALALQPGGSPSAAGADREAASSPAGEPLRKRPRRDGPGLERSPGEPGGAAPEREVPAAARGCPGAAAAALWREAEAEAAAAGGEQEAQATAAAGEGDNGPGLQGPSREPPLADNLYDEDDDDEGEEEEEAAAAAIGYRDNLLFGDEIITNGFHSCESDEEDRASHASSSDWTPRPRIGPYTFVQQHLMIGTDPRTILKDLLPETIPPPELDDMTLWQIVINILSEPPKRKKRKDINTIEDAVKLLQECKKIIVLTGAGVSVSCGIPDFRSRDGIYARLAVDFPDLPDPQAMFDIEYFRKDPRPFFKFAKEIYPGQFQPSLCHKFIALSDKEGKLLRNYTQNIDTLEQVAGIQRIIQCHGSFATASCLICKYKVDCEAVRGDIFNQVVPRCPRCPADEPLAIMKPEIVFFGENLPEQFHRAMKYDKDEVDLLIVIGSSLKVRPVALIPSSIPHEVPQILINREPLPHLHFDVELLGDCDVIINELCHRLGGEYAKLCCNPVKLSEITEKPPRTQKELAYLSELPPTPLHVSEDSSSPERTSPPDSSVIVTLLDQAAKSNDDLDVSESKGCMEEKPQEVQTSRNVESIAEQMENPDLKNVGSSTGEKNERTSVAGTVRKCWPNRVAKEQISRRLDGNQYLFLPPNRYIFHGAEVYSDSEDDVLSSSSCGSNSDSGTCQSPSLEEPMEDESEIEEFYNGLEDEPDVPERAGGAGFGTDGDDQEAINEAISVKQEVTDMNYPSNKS
# Experiment: Trp mass spectrometry assay (SIRT1 activation)
# Assay type: biochemical
# Details: for Emax: percent maximum fold activation of SIRT1, read-out: Tryp % Fold Act
# Summary of the method: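 Activation is expressed as EC1.5, the concentration raising activity 50% above DMSO control, and as maximum percent of control. Mass-spec readout was OAADPR or deacetylated Trp peptide after a formic-acid-quenched 25-min, 25 °C reaction: 10 nM bacterially expressed His-SIRT1, 0.5 μM acetyl-p53-derived peptide, 120 μM NAD+, pH 7.5 HEPES with […].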
# [1] = Trp mass spectrometry assay, EC1.5 = concentration of test compound that results in 150% activation of SIRT1
# [2] = concentration of test compound that results in 150% activation of SIRT1, Trp peptide substrate
Compound,Tryp AVG EC1.5 (μM) [1],Emax (Trp mass spectrometry assay) [%],Tryp AVG EC1.5 (μM) [2],Emax (Trp peptide substrate) [%]
O=C(Nc1cccc(-c2cnco2)c1)N1c2nc(N3CCCC(C(F)(F)F)C3)ccc2N2CC[C@H]1C2 (stereo partly drawn) [Example 212],A (EC1.5<1 μM),≥ 150,–,–
Cc1cc(C)nc(NC(=O)N2c3nc(N4CCCC(C(F)(F)F)C4)ccc3N3CC[C@H]2C3)c1 (stereo partly drawn) [Example 213],B (EC1.5 1-25 μM),≥ 150,–,–
CN(C)c1ccnc(NC(=O)N2c3nc(N4CCCC(C(F)(F)F)C4)ccc3N3CC[C@H]2C3)n1 (stereo partly drawn) [Example 217],B (EC1.5 1-25 μM),≥ 150,–,–
Cc1cc(-c2ccc3c(n2)N(C(=O)Nc2ccccn2)[C@H]2CCN3C2)ccn1 [Example 220],–,–,A (EC1.5<1 μM),≥ 150
Cc1cc(-c2ccc3c(n2)N(C(=O)Nc2cnccn2)[C@H]2CCN3C2)ccn1 [Example 222],–,–,A (EC1.5<1 μM),≥ 150
Cc1ccc(-c2ccc3c(n2)N(C(=O)Nc2cncc(F)c2)[C@H]2CCN3C2)cn1 [Example 224],–,–,B (EC1.5 1-25 μM),≥ 150
N#Cc1cccc(-c2ccc3c(n2)N(C(=O)Nc2cccnn2)[C@@H]2CCCN3C2)c1 [Example 226],–,–,B (EC1.5 1-25 μM),≥ 150
N#Cc1cccc(-c2ccc3c(n2)N(C(=O)Nc2cncc(F)c2)[C@@H]2CCCN3C2)c1 [Example 228],–,–,B (EC1.5 1-25 μM),≥ 150
Cc1cncc(NC(=O)N2c3nc(N4CCCC(C(F)(F)F)C4)ccc3N3CC[C@H]2C3)c1 (stereo partly drawn) [Example 230],–,–,A (EC1.5<1 μM),≥ 150
Cc1cc(NC(=O)N2c3nc(N4CCCC(C(F)(F)F)C4)ccc3N3CC[C@H]2C3)cc(C)n1 (stereo partly drawn) [Example 231],–,–,B (EC1.5 1-25 μM),≥ 150
O=C(Nc1cncc(F)c1)N1c2nc(N3CCCC(C(F)(F)F)C3)ccc2N2CC[C@H]1C2 (stereo partly drawn) [Example 232],–,–,B (EC1.5 1-25 μM),≥ 150
O=C(Nc1cccc(-c2cnco2)c1)N1c2nc(-c3cccc(C(F)(F)F)c3)ccc2N2CC[C@@H]1C2 [Example 233],–,–,A (EC1.5<1 μM),≥ 150
Cc1ccc(-c2ccc3c(n2)N(C(=O)Nc2ccc(F)cn2)[C@H]2CCN3C2)cn1 [Example 237],–,–,B (EC1.5 1-25 μM),≥ 150
Cc1cc(-c2ccc3c(n2)N(C(=O)Nc2cncc(F)c2)[C@H]2CCN3C2)ccn1 [Example 238],–,–,B (EC1.5 1-25 μM),≥ 150
O=C(Nc1cnccn1)N1c2nc(-c3cccc(N4CCC(F)(F)C4)c3)ccc2N2CC[C@H]1C2 [Example 239],–,–,A (EC1.5<1 μM),≥ 150
COc1cc(NC(=O)N2c3nc(-c4ccnc(C)c4)ccc3N3CC[C@H]2C3)ncn1 [Example 240],–,–,B (EC1.5 1-25 μM),≥ 150
CN(C)[C@H]1CCN(c2ccc3c(n2)N(C(=O)Nc2cccnc2)[C@H]2CCN3C2)C1 [Example 242],–,–,B (EC1.5 1-25 μM),≥ 150

Compound,Tryp AVG EC1.5 (μM) [1],Emax (Trp mass spectrometry assay) [%],Tryp AVG EC1.5 (μM) [2],Emax (Trp peptide substrate) [%]
CN(C)[C@H]1CCN(c2ccc3c(n2)N(C(=O)Nc2cncc(F)c2)[C@H]2CCN3C2)C1 [Example 244],–,–,B (EC1.5 1-25 μM),≥ 150
Cc1cc(NC(=O)N2c3nc(N4CC[C@H](N(C)C)C4)ccc3N3CC[C@H]2C3)cc(C)n1 [Example 245],–,–,B (EC1.5 1-25 μM),≥ 150
CN(C)[C@H]1CCN(c2ccc3c(n2)N(C(=O)Nc2cnccn2)[C@H]2CCN3C2)C1 [Example 246],–,–,B (EC1.5 1-25 μM),≥ 150
CN(C)[C@H]1CCN(c2ccc3c(n2)N(C(=O)Nc2nccs2)[C@H]2CCN3C2)C1 [Example 247],–,–,B (EC1.5 1-25 μM),≥ 150
O=C(Nc1ccncn1)N1c2nc(-c3cncc(Cl)c3)ccc2N2CC[C@H]1C2 [Example 249],–,–,B (EC1.5 1-25 μM),≥ 150
COc1cc(NC(=O)N2c3nc(-c4cncc(Cl)c4)ccc3N3CC[C@H]2C3)ncn1 [Example 250],–,–,A (EC1.5<1 μM),≥ 150
CN(C)c1cccc(-c2ccc3c(n2)N(C(=O)Nc2ccccn2)[C@@H]2CCCN3C2)c1 [Example 251],–,–,C (EC1.5>25 μM),≥ 150
Cc1nc(NC(=O)N2c3nc(-c4cccc(N(C)C)c4)ccc3N3CCC[C@@H]2C3)sc1C [Example 252],–,–,C (EC1.5>25 μM),≥ 150
CN(C)c1cccc(-c2ccc3c(n2)N(C(=O)Nc2ccc(F)cn2)[C@@H]2CCCN3C2)c1 [Example 253],–,–,C (EC1.5>25 μM),< 150
COc1cc(NC(=O)N2c3nc(-c4cccc(N5CC[C@H](F)C5)c4)ccc3N3CC[C@H]2C3)ncn1 [Example 255],–,–,B (EC1.5 1-25 μM),≥ 150
COc1cc(NC(=O)N2c3nc(-c4cccc(N5CCC(F)(F)C5)c4)ccc3N3CC[C@H]2C3)ncn1 [Example 256],–,–,B (EC1.5 1-25 μM),≥ 150
O=C(Nc1ccc(F)cn1)N1c2nc(-c3cccc(N4CCC(F)(F)C4)c3)ccc2N2CC[C@H]1C2 [Example 257],–,–,B (EC1.5 1-25 μM),≥ 150
O=C(Nc1ccccn1)N1c2nc(Cl)ccc2N2CC[C@H]1C2 [Example 258],–,–,C (EC1.5>25 μM),≥ 150
O=C(Nc1cncc(F)c1)N1c2nc(Cl)ccc2N2CC[C@H]1C2 [Example 259],–,–,B (EC1.5 1-25 μM),≥ 150
O=C(Nc1ccccn1)N1c2nc(-c3cncc(Cl)c3)ccc2N2CC[C@H]1C2 [Example 260],–,–,A (EC1.5<1 μM),≥ 150
O=C(Nc1ccc(F)cn1)N1c2nc(-c3cncc(Cl)c3)ccc2N2CC[C@H]1C2 [Example 261],–,–,A (EC1.5<1 μM),≥ 150

# Next, values leading:
Tryp AVG EC1.5 (μM) [1],Emax (Trp mass spectrometry assay) [%],Tryp AVG EC1.5 (μM) [2],Emax (Trp peptide substrate) [%],Compound
A (EC1.5<1 μM),≥ 150,–,–,Cc1csc(NC(=O)N2c3nc(N4CCCC(C(F)(F)F)C4)ccc3N3CC[C@H]2C3)n1 (stereo partly drawn) [Example 214]
B (EC1.5 1-25 μM),≥ 150,–,–,Cc1nc(NC(=O)N2c3nc(N4CCCC(C(F)(F)F)C4)ccc3N3CC[C@H]2C3)sc1C (stereo partly drawn) [Example 215]
A (EC1.5<1 μM),≥ 150,–,–,CN(C)c1cc(NC(=O)N2c3nc(N4CCCC(C(F)(F)F)C4)ccc3N3CC[C@H]2C3)ccn1 (stereo partly drawn) [Example 216]
–,–,A (EC1.5<1 μM),≥ 150,O=C(Nc1cncc(F)c1)N1c2nc(-c3cccc(Cl)c3)ccc2N2CC[C@@H]1C2 [Example 218]
–,–,B (EC1.5 1-25 μM),≥ 150,COc1cccc(-c2ccc3c(n2)N(C(=O)Nc2ccccn2)[C@@H]2CCN3C2)c1 [Example 219]
–,–,B (EC1.5 1-25 μM),≥ 150,Cc1ccc(-c2ccc3c(n2)N(C(=O)Nc2ccccn2)[C@H]2CCN3C2)cn1 [Example 221]
–,–,A (EC1.5<1 μM),≥ 150,Cc1cc(-c2ccc3c(n2)N(C(=O)Nc2ccc(F)cn2)[C@H]2CCN3C2)ccn1 [Example 223]
–,–,B (EC1.5 1-25 μM),≥ 150,N#Cc1cccc(-c2ccc3c(n2)N(C(=O)Nc2ccccn2)[C@@H]2CCCN3C2)c1 [Example 225]
–,–,B (EC1.5 1-25 μM),≥ 150,N#Cc1cccc(-c2ccc3c(n2)N(C(=O)Nc2ccc(F)cn2)[C@@H]2CCCN3C2)c1 [Example 227]
–,–,B (EC1.5 1-25 μM),≥ 150,O=C(Nc1cccnc1)N1c2nc(N3CCCC(C(F)(F)F)C3)ccc2N2CC[C@H]1C2 (stereo partly drawn) [Example 229]
–,–,B (EC1.5 1-25 μM),≥ 150,O=C(Nc1ccncn1)N1c2nc(-c3cccc(Cl)c3)ccc2N2CC[C@@H]1C2 [Example 234]
–,–,A (EC1.5<1 μM),≥ 150,O=C(Nc1cccc(-c2cnco2)c1)N1c2nc(-c3cccc(Cl)c3)ccc2N2CC[C@@H]1C2 [Example 235]
–,–,B (EC1.5 1-25 μM),≥ 150,Cc1ccc(-c2ccc3c(n2)N(C(=O)Nc2cnccn2)[C@H]2CCN3C2)cn1 [Example 236]
–,–,C (EC1.5>25 μM),≥ 150,Cc1cncc(NC(=O)N2c3nc(N4CC[C@H](N(C)C)C4)ccc3N3CC[C@H]2C3)c1 [Example 243]
–,–,A (EC1.5<1 μM),≥ 150,O=C(Nc1ccccn1)N1c2nc(-c3cccc(N4CCC(F)(F)C4)c3)ccc2N2CC[C@H]1C2 [Example 254]

# From patent US9765075B2, “Substituted bridged urea analogs as sirtuin modulators” (GLAXOSMITHKLINE LLC, priority 2013, dated 2017)
